SMILES strings stand for the structures.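 Where inhibition never reached the appropriate level, the endpoint shown equals the highest concentration tested. Otherwise, values were interpolated linearly from a five-concentration, 48-hour dose response in 96-well plates. GI50 = concentration required for 50% inhibition of growth. TGI marks complete inhibition of growth.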

In PubChem BioAssay (NCI) one finds GI50 and TGI data, which are given here for eleven molecules.

Test systems include KM12 colon; NCI-H460 lung; MOLT-4 leukemia; IGROV1 ovarian; HOP-62 NSCLC; OVCAR-8 ovarian; HT29 colon; NCI-H522 lung; SNB-19 CNS; A498 renal.
What all share (assay): NCI anticancer screen, dose series, 48 h

On to `CCCCOC1OC(COC(=O)C(C)C)C(OC(=O)C(C)C)C(O)C1OC1OC(C)C(OC(=O)CCC)C(OC(=O)C(C)C)C1O` (stereo not given), for which the GI50 in the assay with KM12 colon is 15.1 µM; in the assay with NCI-H460 lung it was 11.6 µM; in the assay with MOLT-4 leukemia, 1.71 µM; in the assay with IGROV1 ovarian, 22.7 µM; in the assay with HOP-62 NSCLC, 14.3 µM; in the assay with OVCAR-8 ovarian it was 19.6 µM. Besides, the GI50 was 9.33 µM in the assay on HT29 colon, 19.1 µM in the assay on NCI-H522 lung and 16.5 µM in the assay on SNB-19 CNS. The TGI in the assay on KM12 colon came to 29 µM; in the assay with NCI-H460 lung, 27.8 µM; in the assay with MOLT-4 leukemia, 4.12 µM; in the assay with IGROV1 ovarian, 58.5 µM; in the assay on HOP-62 NSCLC it was 27.4 µM; in the assay on OVCAR-8 ovarian, 37.8 µM. For the same molecule, the results for the TGI in the assay on HT29 colon, in the assay with NCI-H522 lung and with SNB-19 CNS were 22.5 µM, 39.6 µM and 31.3 µM, respectively.

Consider `CC(C)(C)OC(=O)NCc1cccc(N=C=S)c1`, for which the GI50 in the assay on KM12 colon is 16.5 µM; in the assay with NCI-H460 lung, 20.5 µM; in the assay with MOLT-4 leukemia, 19.7 µM; in the assay on IGROV1 ovarian, 19.3 µM; with HOP-62 NSCLC, 21.8 µM; with OVCAR-8 ovarian, 29.6 µM. For the same molecule, the GI50 in the assay on HT29 colon was 23.2 µM; in the assay with NCI-H522 lung, 17.4 µM; in the assay with SNB-19 CNS, 17.6 µM. Besides, the TGI was 32.8 µM in the assay with KM12 colon; 46.1 µM in the assay with NCI-H460 lung; 53.6 µM with MOLT-4 leukemia; 41.8 µM with IGROV1 ovarian; 55.8 µM in the assay on HOP-62 NSCLC; more than 92.7 µM in the assay with OVCAR-8 ovarian. Further, the TGI with HT29 colon stood at 54 µM; in the assay with NCI-H522 lung, 44.1 µM; in the assay with SNB-19 CNS, 44.7 µM.

Turning to `OCCN(CCO)c1cccc(N(CCO)CCO)n1`, the TGI in the assay on KM12 colon, in the assay on NCI-H460 lung, in the assay with A498 renal, with MOLT-4 leukemia, in the assay with HOP-62 NSCLC and in the assay with OVCAR-8 ovarian was more than 100 µM in each case. The TGI with NCI-H522 lung and in the assay on SNB-19 CNS was more than 100 µM in each case.

Consider `Cl.Fc1c[c-]c(-c2ccccn2)c(F)c1.[Pt].c1ccc([PH+](C[PH+](c2ccccc2)c2ccccc2)c2ccccc2)cc1`, for which the GI50 with KM12 colon was 0.276 µM; in the assay on A498 renal, 0.239 µM; in the assay with OVCAR-8 ovarian, 0.303 µM; in the assay on SNB-19 CNS it was 0.343 µM. Moreover, the TGI was found to be 1 µM in the assay with KM12 colon, 0.721 µM with A498 renal, 1.73 µM in the assay on OVCAR-8 ovarian and 1.32 µM with SNB-19 CNS.

Turning to `Nc1nc(N)c2nc3c(nc2n1)CCCCCCCCCC3`, the GI50 in the assay with KM12 colon was 8.6 µM; in the assay with NCI-H460 lung, 0.358 µM; in the assay on A498 renal it was 6.9 µM; with MOLT-4 leukemia it was 3.83 µM; with IGROV1 ovarian, 0.421 µM; in the assay with HOP-62 NSCLC it was 4.47 µM. In addition, the GI50 in the assay with OVCAR-8 ovarian was 1.99 µM; with SNB-19 CNS, 6.43 µM. Further, the TGI in the assay with KM12 colon, in the assay with NCI-H460 lung, in the assay on A498 renal, with MOLT-4 leukemia, in the assay on IGROV1 ovarian and with HOP-62 NSCLC was more than 100 µM in each case. The TGI with OVCAR-8 ovarian and in the assay on SNB-19 CNS was more than 100 µM each time.

For the molecule `O=c1c2cc3c(cc2c2cccc4c2n1CCC4)OCO3`, the TGI in the assay with KM12 colon, in the assay on NCI-H460 lung, with MOLT-4 leukemia, in the assay on IGROV1 ovarian, with HOP-62 NSCLC and in the assay on OVCAR-8 ovarian was more than 100 µM each time. For the same molecule, the TGI was more than 100 µM in the assay on HT29 colon, 42 µM with NCI-H522 lung and more than 100 µM in the assay on SNB-19 CNS.

On to `COc1cc2ccnc3c(=C(SC)SC)c(=O)c(c1OC)c23`, for which the TGI with KM12 colon was 53.5 µM; with NCI-H460 lung, more than 100 µM; with MOLT-4 leukemia, 23.8 µM; in the assay on IGROV1 ovarian, 47.5 µM; in the assay on HOP-62 NSCLC, more than 100 µM; in the assay with OVCAR-8 ovarian, 22.7 µM. Moreover, the TGI with HT29 colon is 26.2 µM; in the assay with NCI-H522 lung, 5.18 µM; in the assay with SNB-19 CNS, more than 100 µM.

As for `O=[N+]([O-])c1cc2no[n+]([O-])c2cc1N1CCCCC1`, the TGI turned out to be 30.5 µM with KM12 colon; 56.6 µM in the assay on NCI-H460 lung; 35.2 µM in the assay with A498 renal; 4.95 µM in the assay on MOLT-4 leukemia; 8.83 µM with IGROV1 ovarian; 31.3 µM with HOP-62 NSCLC. In addition, the TGI was found to be 5.74 µM in the assay with OVCAR-8 ovarian, 3.86 µM in the assay on HT29 colon and 35.5 µM with SNB-19 CNS.

As to `COc1cnc2c(c1)C(=O)c1c-2n(CCCN2CCC(O)CC2)c(=O)c2cc(Cl)ccc12`, the GI50 in the assay on KM12 colon was 1.43 µM; in the assay with NCI-H460 lung, 0.0371 µM; in the assay on A498 renal, 0.704 µM; in the assay on MOLT-4 leukemia, 0.0745 µM; with HOP-62 NSCLC, 0.0942 µM; with OVCAR-8 ovarian it was 0.665 µM. The GI50 in the assay with HT29 colon was 0.59 µM; in the assay on NCI-H522 lung, 0.11 µM; in the assay on SNB-19 CNS, 0.243 µM. The TGI in the assay on KM12 colon came out at 3.64 µM; in the assay on NCI-H460 lung, 1.27 µM; in the assay on A498 renal, 21.8 µM; in the assay with MOLT-4 leukemia, 5.34 µM; in the assay on HOP-62 NSCLC it was 17.1 µM; in the assay with OVCAR-8 ovarian, 3.53 µM. Also, the TGI in the assay with HT29 colon is 2.43 µM; in the assay on NCI-H522 lung, 2.02 µM; in the assay with SNB-19 CNS, 3.46 µM.

Turning to `O=[N+]([O-])c1cc([N+](=O)[O-])c(Cl)cc1Cl`, the GI50 in the assay on KM12 colon is 1.64 µM; with A498 renal, 1.61 µM; in the assay on MOLT-4 leukemia it was 0.918 µM; in the assay with IGROV1 ovarian, 1.17 µM; in the assay on HOP-62 NSCLC, 1.68 µM; in the assay with OVCAR-8 ovarian, 1.27 µM. For the same molecule, in the assay with SNB-19 CNS, the GI50 is 1.95 µM. Moreover, the TGI in the assay with KM12 colon came to 3.05 µM; in the assay on A498 renal it was 4.51 µM; with MOLT-4 leukemia, 4.4 µM; in the assay on IGROV1 ovarian it was 2.74 µM; with HOP-62 NSCLC it was 3.27 µM; with OVCAR-8 ovarian, 2.91 µM. Besides, the TGI in the assay with SNB-19 CNS worked out at 3.66 µM.

With `Cc1[nH]c2cc(F)ccc2c1-c1nc2c3cccnc3c3ncccc3c2[nH]1`, the GI50 is 0.379 µM in the assay on KM12 colon; 0.322 µM with NCI-H460 lung; 0.263 µM in the assay on A498 renal; 0.17 µM with MOLT-4 leukemia; 0.27 µM in the assay with HOP-62 NSCLC; 0.216 µM in the assay on OVCAR-8 ovarian. In addition, the values for the GI50 with HT29 colon, in the assay with NCI-H522 lung and in the assay on SNB-19 CNS were 0.436 µM, 0.391 µM and 0.257 µM, respectively. The TGI in the assay with KM12 colon stood at 1.78 µM; with NCI-H460 lung, 1.03 µM; in the assay with A498 renal it was 1.06 µM; in the assay with MOLT-4 leukemia, 0.642 µM; with HOP-62 NSCLC, 1.27 µM; in the assay with OVCAR-8 ovarian it was 1.22 µM. Moreover, the values for the TGI with HT29 colon, in the assay with NCI-H522 lung and in the assay with SNB-19 CNS were 1.66 µM, 1.46 µM and 3.87 µM, respectively.
